Results reported in patent publication US20140294894A1 (priority 2007, published 2014).
Ends that are not written are not given here.

Key:
TT = tested on: TT; parameters: species or system mice; settings: mouse, in vivo
splenocytes = type: cell-based, mice
tetanus toxin = tested on: tetanus toxin; parameters: species or system mice; settings: mouse, in vivo
Spleen cells = assay: Cytokine assay; type: cell-based, mice
[1] = Experiment 1, following restimulation

FCIGRL [AT1002]
anti-tetanus IgG subclass titers (IgG1, IgG2a): shift toward a Th1 response (TT): No indication of a shift toward a Th1 response
anti-tetanus response (tetanus IgG titer) compared to tetanus toxoid alone (TT): significantly enhances the anti-tetanus response in a dose-dependent manner
anti-tetanus response (tetanus IgG titer), effect of higher dose (TT): does not increaser the anti-tetanus response
proliferation of spleen cells on restimulation with immunizing antigen (Stimulation Index) (splenocytes): induces the strongest cell proliferation response
protective antibody levels compared to immunization with TT alone (tetanus toxin): increased protective antibody levels
IL-5 production compared to groups immunized with toxoid (TT) alone (Spleen cells; [1]): does not increase production
IL-10 production compared to groups immunized with toxoid (TT) alone (Spleen cells; [1]): does not increase production
IL-6 production by spleen cells compared to groups immunized with toxoid (TT) alone (Spleen cells; Experiment 1, restimulation with TT 0-100 μg/ml, FIG. 8A): does increase IL-6 production
IFN-γ production by spleen cells compared to groups immunized with toxoid (TT) alone (Spleen cells; Experiment 1, restimulation with TT 0-100 μg/ml, FIG. 8B): does not increase IFN-γ production
IL-6 production by spleen cells compared to groups immunized with toxoid (TT) alone (Spleen cells; Experiment 2, restimulation with TT 0-100 μg/ml, FIG. 14A): does increase IL-6 production
